Read-outs that look alike come from different tables or passages of the source.
Assays:
SH-SY5Y neuronal cells = assay: In vitro viability assay (constitutive Renilla luciferase reporter); type: cell-based, human
Description: The viability assay allows for further assessment of test compounds regarding their effect on cells such as neurons. Therefore, a stably transfected cell line (e.g. SH-SY5Y cells) with a reporter construct (e.g. a luciferase construct) has to be incubated with the test compound and in parallel with positive and negative controls (e.g. staurosporine and sham, respectively). Subsequently, the signal generated by the reporter construct serves as a readout for the viability of the cells in the presence of the test compound. The assay enables the evaluation of potential neurotoxic effects of the test compound itself.
The effect of a compound on the viability of neuronal cells can be assayed in vitro by measuring the survival of neuronal cells transfected with a reporter construct under a constitutive promoter. SH-SY5Y neuronal cells stably transfected with a Renilla luciferase construct under the SV40 promoter were seeded in 96-well plates at a density of 2,5 x 10^4 cells per well. Following overnight incubation the cells were stimulated with medium containing thiabendazole or vehicle. Staurosporine (0,5 µM) served as positive control. The Renilla luciferase activity was measured 5 h later using a luminometer (Berthold Technologies, Mithras LB 940). Thiabendazole was tested in a range from 0,8 µM to 50 µM final concentration.
Analogously, thiabendazole (A; Sigma) and various derivatives thereof (2-(1,3-thiazol-5-yl)-benzimidazole (B; ChemBridge Corporation), 4-(benzimidazol-2-yl)-1,3-thiazol-2-amine (C; ChemBridge Corporation), 2-(2-thienyl)-benzimidazole (D; ChemBridge Corporation), or 2-(1,3-thiazol-4-yl)-benzimidazole-5-ol (E; Witega GmbH), Fig. 8) have been analysed for their effect on the viability of neuronal cells. The compounds were tested in a final concentration of 1 µM and of 10 µM.

[1] = rat; cited from earlier work
[2] = rabbit; cited from earlier work
[3] = pH 7.0; cited from earlier work
[4] = target: cytochrom P450 1A2 (CyP1A2) (Homo sapiens, UniProt P05177); details: cited from earlier work
[5] = man, oral, in 48 hours; cited from earlier work

cytochrom P450 1A2 (CyP1A2), sequence (P05177 whole entry, species assumed): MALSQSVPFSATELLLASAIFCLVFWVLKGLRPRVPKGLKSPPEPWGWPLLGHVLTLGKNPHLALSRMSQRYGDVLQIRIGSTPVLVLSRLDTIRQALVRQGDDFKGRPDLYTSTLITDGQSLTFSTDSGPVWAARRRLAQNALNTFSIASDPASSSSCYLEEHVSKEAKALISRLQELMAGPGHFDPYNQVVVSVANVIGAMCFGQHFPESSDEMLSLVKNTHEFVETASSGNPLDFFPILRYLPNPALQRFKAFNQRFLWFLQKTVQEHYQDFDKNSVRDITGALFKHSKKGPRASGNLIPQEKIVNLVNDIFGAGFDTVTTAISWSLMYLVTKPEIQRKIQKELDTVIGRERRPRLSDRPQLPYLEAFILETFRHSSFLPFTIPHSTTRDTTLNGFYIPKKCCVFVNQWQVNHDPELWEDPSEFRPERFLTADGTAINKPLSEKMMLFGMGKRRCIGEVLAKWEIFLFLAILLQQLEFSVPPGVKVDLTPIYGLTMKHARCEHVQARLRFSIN

c1ccc2[nH]c(-c3cscn3)nc2c1 [thiabendazole, 2-(4-thiazolyl)-benzimidazole]
viability of the neuronal cells (Renilla luciferase activity) (SH-SY5Y neuronal cells; 0,8 µM to 50 µM final concentration, 5 h, Fig. 3): did not show any significant effect on the viability | viability of neuronal cells (Renilla luciferase activity) (SH-SY5Y neuronal cells; final concentration of 1 µM and of 10 µM, Fig. 7): did not show any significantly reduced viability | oral LD 50 [1]: 3,1 g/kg | oral LD 50 [2]: 3,8 g/kg | solubility in water [3]: approximately 50 mg/l | inhibitor of cytochrom P450 1A2 (CyP1A2) [4]: potent inhibitor | administered dose recovered from the feces [5]: about 5% | administered dose recovered from the urine [5]: about 90%

From patent EP2251010A1, “Use of thiabendazole and derivatives thereof for the therapy of neurological conditions” (Sygnis Bioscience GmbH & Co. KG, priority 2009, dated 2010)
